The target of assay [1] is Serine/threonine-protein kinase pim-3 (Homo sapiens, UniProt Q86V86). Put plainly: Percentage PIM3 activity remaining in the presence of 0.1uM inhibitor.
Assay [2] addresses RAC-alpha serine/threonine-protein kinase (Homo sapiens) (UniProt P31749). Put plainly: Percentage PKBalpha activity remaining in the presence of 0.1uM inhibitor.
The target of assay [3] is T1, Eukaryotic elongation factor 2 kinase (Homo sapiens) (UniProt O00418).
T1 sequence (whole entry): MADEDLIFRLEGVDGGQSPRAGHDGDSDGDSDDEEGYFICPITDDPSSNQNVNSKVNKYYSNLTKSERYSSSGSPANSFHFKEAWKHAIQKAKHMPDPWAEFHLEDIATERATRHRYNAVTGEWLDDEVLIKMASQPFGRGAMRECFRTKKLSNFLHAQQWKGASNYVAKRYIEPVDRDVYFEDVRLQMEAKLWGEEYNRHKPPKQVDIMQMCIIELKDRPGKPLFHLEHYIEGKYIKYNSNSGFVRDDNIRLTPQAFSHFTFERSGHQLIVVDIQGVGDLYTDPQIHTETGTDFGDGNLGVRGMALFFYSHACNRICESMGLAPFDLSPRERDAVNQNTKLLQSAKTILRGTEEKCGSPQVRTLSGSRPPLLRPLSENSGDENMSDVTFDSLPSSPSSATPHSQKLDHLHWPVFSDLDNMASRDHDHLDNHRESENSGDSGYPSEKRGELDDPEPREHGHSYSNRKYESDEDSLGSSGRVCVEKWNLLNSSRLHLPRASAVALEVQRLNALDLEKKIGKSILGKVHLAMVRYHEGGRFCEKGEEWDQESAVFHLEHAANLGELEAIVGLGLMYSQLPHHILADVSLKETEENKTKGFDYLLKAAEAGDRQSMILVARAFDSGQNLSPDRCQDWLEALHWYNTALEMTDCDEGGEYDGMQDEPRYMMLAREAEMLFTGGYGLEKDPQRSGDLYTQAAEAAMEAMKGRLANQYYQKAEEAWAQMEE
As to the kind of experiment: Percentage EF2K activity remaining in the presence of 0.1uM inhibitor.

In assay [4] the target is Ribosomal protein S6 kinase beta-1 (Homo sapiens, UniProt P23443). As to the kind of experiment: Percentage S6K1 activity remaining in the presence of 0.1uM inhibitor.
Chain of Ribosomal protein S6 kinase beta-1 (P23443 whole entry, looked up): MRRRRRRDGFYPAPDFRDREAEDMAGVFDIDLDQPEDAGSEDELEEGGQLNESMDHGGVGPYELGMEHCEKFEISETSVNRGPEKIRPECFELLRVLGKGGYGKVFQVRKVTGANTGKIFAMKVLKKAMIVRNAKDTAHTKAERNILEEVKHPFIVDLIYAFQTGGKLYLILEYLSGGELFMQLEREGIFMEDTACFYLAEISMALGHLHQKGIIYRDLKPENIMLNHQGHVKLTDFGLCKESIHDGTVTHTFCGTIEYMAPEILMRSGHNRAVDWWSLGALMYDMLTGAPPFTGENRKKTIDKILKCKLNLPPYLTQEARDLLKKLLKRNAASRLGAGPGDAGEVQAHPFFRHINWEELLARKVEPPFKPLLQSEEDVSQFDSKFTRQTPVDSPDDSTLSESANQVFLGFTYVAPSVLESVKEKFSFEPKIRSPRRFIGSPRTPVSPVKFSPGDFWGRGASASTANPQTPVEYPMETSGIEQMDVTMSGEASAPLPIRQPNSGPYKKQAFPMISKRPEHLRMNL
The target in assay [5] is Serine/threonine-protein kinase Nek7 (Homo sapiens) (UniProt Q8TDX7). As to the kind of experiment: Percentage NEK7 activity remaining in the presence of 0.1uM inhibitor.
Chain of Serine/threonine-protein kinase Nek7 (Homo sapiens) (Q8TDX7 whole entry, looked up): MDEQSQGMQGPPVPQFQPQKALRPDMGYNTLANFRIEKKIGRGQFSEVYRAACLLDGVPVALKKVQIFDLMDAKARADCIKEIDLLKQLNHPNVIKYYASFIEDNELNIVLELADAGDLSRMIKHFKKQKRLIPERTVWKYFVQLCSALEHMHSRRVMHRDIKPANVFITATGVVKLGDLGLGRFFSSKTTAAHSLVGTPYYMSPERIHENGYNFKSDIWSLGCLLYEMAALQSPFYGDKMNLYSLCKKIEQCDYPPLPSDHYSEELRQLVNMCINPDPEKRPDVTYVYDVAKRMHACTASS
Assay [6] addresses T2, Inhibitor of nuclear factor kappa-B kinase subunit beta (Homo sapiens) (UniProt O14920).
T2 sequence (whole entry): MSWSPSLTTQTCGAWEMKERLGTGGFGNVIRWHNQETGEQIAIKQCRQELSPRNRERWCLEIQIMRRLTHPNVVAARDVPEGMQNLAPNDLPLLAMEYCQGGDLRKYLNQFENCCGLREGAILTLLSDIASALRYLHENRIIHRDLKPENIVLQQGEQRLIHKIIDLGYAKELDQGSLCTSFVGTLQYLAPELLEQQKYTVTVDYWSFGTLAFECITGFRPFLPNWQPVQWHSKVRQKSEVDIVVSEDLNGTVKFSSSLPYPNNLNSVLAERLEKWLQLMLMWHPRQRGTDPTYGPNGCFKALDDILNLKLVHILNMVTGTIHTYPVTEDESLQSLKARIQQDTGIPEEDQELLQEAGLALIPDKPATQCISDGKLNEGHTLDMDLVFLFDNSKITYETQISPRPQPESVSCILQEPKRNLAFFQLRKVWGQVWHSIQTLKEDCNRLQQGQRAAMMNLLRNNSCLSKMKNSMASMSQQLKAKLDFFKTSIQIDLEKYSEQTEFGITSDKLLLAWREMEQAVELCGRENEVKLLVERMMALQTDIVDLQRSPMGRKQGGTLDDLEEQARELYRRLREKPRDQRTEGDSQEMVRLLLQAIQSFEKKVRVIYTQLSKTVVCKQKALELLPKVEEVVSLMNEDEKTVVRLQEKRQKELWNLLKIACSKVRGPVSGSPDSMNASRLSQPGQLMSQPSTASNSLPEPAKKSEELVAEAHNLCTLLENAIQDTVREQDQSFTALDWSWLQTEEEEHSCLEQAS
Put plainly: Percentage IKK-beta activity remaining in the presence of 0.1uM inhibitor.

Assay [7] has as its target Mitogen-activated protein kinase 14 (Homo sapiens, UniProt Q16539). As to the kind of experiment: Percentage p38alpha activity remaining in the presence of 0.1uM inhibitor.
Assay [8] deals with Ribosomal protein S6 kinase alpha-1 (Homo sapiens) (UniProt Q15418). Put plainly: Percentage RSK1 activity remaining in the presence of 0.1uM inhibitor.
Chain of Ribosomal protein S6 kinase alpha-1 (Homo sapiens) (Q15418 whole entry): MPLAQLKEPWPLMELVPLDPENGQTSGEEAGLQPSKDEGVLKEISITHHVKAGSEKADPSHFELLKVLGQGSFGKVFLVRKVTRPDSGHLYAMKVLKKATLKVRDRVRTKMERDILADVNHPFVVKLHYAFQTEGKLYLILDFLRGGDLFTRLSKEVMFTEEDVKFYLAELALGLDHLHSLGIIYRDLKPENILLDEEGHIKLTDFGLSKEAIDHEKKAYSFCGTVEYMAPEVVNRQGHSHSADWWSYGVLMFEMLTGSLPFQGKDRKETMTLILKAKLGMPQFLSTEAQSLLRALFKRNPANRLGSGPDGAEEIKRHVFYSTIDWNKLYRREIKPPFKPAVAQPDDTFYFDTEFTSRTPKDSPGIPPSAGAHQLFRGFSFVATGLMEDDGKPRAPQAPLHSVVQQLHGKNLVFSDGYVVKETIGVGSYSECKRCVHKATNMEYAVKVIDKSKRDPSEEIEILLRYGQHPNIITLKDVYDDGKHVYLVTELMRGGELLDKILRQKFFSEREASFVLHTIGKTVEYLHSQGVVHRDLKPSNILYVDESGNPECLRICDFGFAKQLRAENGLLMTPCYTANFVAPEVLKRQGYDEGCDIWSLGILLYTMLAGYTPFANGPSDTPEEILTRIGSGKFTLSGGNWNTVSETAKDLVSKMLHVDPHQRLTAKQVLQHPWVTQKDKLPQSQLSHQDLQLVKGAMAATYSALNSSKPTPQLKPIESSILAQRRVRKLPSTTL
The target in assay [9] is Protein kinase C alpha type (Homo sapiens) (UniProt P17252). Put plainly: Percentage PKCalpha activity remaining in the presence of 0.1uM inhibitor.
The species named for the next assay is Rattus norvegicus. As to the kind of experiment: Percentage AMPK activity remaining in the presence of 0.1uM inhibitor.
The target in assay [10] is T3, MAP kinase-activated protein kinase 5 (Homo sapiens) (UniProt Q8IW41).
T3 sequence (whole entry): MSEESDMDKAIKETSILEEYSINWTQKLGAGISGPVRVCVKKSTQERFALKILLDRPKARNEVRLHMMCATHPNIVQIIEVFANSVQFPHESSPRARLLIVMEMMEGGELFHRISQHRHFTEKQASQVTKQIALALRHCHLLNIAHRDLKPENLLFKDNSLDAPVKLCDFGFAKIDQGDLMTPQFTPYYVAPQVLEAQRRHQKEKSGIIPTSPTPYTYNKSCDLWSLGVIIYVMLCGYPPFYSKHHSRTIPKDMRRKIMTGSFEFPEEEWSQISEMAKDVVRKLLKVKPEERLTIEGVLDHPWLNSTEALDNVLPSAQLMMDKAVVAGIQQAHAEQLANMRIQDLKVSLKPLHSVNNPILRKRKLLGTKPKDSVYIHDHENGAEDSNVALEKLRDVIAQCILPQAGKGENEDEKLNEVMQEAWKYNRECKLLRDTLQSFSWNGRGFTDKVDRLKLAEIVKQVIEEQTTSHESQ
Put plainly: Percentage PRAK activity remaining in the presence of 0.1uM inhibitor.

For a further assay, the species on record is Homo sapiens. Put plainly: Percentage PHK activity remaining in the presence of 0.1uM inhibitor.
Assay [11] concerns the target cAMP-dependent protein kinase catalytic subunit alpha (Homo sapiens, UniProt P17612). As to the kind of experiment: Percentage PKA activity remaining in the presence of 0.1uM inhibitor.
The target of assay [12] is Casein kinase II (Homo sapiens) (UniProt P67870+P68400+P19784). As to the kind of experiment: Percentage CK2 activity remaining in the presence of 0.1uM inhibitor. Format: protein-complex assay.
Assay [13] deals with Tyrosine-protein kinase CSK (Homo sapiens, UniProt P41240). Put plainly: Percentage CSK activity remaining in the presence of 0.1uM inhibitor.
Chain of Tyrosine-protein kinase CSK (P41240 2-450 limits assumed): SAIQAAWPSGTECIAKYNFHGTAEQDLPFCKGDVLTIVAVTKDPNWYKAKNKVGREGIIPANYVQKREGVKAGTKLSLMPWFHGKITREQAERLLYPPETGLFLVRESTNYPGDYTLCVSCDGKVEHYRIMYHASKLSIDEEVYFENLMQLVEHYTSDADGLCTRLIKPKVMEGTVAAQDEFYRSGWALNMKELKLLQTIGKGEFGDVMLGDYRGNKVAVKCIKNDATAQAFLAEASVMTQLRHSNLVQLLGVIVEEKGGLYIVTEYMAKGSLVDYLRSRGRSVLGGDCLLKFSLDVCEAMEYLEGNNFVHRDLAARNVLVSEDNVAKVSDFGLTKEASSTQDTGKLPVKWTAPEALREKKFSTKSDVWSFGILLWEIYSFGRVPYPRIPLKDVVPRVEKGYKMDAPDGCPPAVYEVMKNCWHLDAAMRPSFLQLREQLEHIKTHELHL

Data on seven compounds can be found in ChEMBL document CHEMBL1150976, “The selectivity of protein kinase inhibitors: a further update” (Biochem J, 2007).

Chain of RAC-alpha serine/threonine-protein kinase (Homo sapiens) (P31749 whole entry): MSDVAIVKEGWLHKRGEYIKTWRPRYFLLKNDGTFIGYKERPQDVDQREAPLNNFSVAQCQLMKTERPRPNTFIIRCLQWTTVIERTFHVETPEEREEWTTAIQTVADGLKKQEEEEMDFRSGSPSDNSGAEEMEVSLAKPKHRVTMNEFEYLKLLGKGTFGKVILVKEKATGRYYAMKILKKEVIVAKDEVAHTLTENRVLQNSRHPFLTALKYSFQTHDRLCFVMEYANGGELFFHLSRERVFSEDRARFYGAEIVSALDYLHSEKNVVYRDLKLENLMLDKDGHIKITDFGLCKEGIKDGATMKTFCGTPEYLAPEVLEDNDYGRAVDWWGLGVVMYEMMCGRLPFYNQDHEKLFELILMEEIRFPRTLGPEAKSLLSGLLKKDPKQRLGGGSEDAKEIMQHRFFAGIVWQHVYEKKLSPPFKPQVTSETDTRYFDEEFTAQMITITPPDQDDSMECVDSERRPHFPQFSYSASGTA
Chain of Mitogen-activated protein kinase 14 (Q16539 whole entry): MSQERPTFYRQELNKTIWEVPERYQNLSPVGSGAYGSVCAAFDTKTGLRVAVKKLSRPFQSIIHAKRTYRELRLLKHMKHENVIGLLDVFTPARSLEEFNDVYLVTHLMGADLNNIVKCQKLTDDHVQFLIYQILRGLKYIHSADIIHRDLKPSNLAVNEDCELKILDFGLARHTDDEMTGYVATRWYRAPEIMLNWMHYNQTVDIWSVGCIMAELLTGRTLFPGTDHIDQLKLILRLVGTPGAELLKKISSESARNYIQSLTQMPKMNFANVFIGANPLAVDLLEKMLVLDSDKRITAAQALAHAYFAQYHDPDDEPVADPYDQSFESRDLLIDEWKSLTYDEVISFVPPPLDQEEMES

Consider `CC(C)[C@H](CO)Nc1nc(Nc2cccc(Cl)c2)c2ncn(C(C)C)c2n1` [PURVALANOLA], for which the Activity in assay [1] came out at 91%; in assay [2] it was 95%; in assay [3], 95%; in assay [4] it was 87%; in [5], 105%; in assay [6], 89%. Besides, the Activity in [7] stood at 95%; in assay [8] it was 74%; in assay [9], 77%; in the assay listed under Rattus norvegicus, 89%; in assay [10] it was 91%; in the assay listed under Homo sapiens, 85%. The figures for the Activity in [11], in assay [12] and in assay [13] were 79%, 99% and 82%, respectively.
For `Cn1cc(C2=C(c3cn(CCCSC(=N)N)c4ccccc34)C(=O)NC2=O)c2ccccc21`, the Activity in [1] (filed as antagonist) was 16%; in [2], 52%; in assay [3], 101%; in assay [4] (filed as antagonist), 20%; in assay [5], 101%; in assay [6] it was 91%. Moreover, the Activity in assay [7] was 102%; in [8] (filed as antagonist) it was 11%; in assay [9] (filed as antagonist) it was 3%; in the assay filed under Rattus norvegicus, 84%; in assay [10], 80%; in the assay filed under Homo sapiens (filed as antagonist), 46%. The Activity in assay [11] was 51%; in assay [12], 99%; in [13], 77%.
As for `O=C(NCCCNc1nc(Nc2cccc(NC(=O)N3CCCC3)c2)ncc1I)c1cccs1`, the Activity in [1] is 63%; in assay [2], 90%; in assay [3], 93%; in assay [4], 84%; in assay [5], 99%; in assay [6] it was 93%. For the same compound, the Activity in [7] is 87%; in [8], 55%; in assay [9] it was 74%; in the assay filed under Rattus norvegicus (filed as antagonist), 11%; in assay [10], 83%; in the assay filed under Homo sapiens, 62%. Moreover, the values for the Activity in assay [11], in [12] and in assay [13] were 72%, 93% and 101%, respectively.
Regarding `Cn1c2ccccc2c2c3c(c4c5ccccc5n(CCC#N)c4c21)CNC3=O`, the Activity in assay [1] (filed as antagonist) was 7%; in assay [2] it was 96%; in assay [3], 100%; in assay [4] (filed as antagonist) it was 12%; in assay [5], 98%; in [6] it was 76%. In addition, the Activity is 100% in assay [7]; 6% in assay [8] (filed as antagonist); 2% in assay [9] (filed as antagonist); 76% in assay [10]; 1% in the assay listed under Homo sapiens (filed as antagonist); 50% in [11] (filed as antagonist). In addition, the Activity in assay [12] amounted to 88%; in [13], 75%.
Regarding `CN(C)C[C@@H]1CCn2cc(c3ccccc32)C2=C(C(=O)NC2=O)c2cn(c3ccccc23)CCO1`, the Activity in [1] (filed as antagonist) is 5%; in assay [2], 90%; in assay [3], 90%; in assay [4] it was 52%; in [5], 104%; in [6], 86%. Also, the Activity in assay [8] (filed as antagonist) is 10%; in the assay filed under Rattus norvegicus it was 71%; in assay [10], 82%; in the assay listed under Homo sapiens (filed as antagonist), 49%; in assay [11] it was 59%; in assay [12], 89%. In assay [13], the Activity was determined as 78%.
Consider `CC(C)CCN1c2nc(Nc3cc(F)c(O)c(F)c3)ncc2N(C)C(=O)C1C` (configuration not stated), for which the Activity worked out at 65% in assay [1]; 98% in assay [2]; 88% in [3]; 119% in assay [4]; 108% in assay [5]; 106% in [6]. In addition, the Activity in assay [7] is 88%; in assay [8] (filed as antagonist) it was 1%; in assay [9], 90%; in the assay listed under Rattus norvegicus it was 108%; in assay [10] it was 89%; in the assay filed under Homo sapiens, 114%. The Activity turned out to be 89% in [11], 97% in [12] and 99% in assay [13].
On to `Cc1n[nH]c2ccc(-c3cncc(OC[C@@H](N)Cc4c[nH]c5ccccc45)c3)cc12`, for which the Activity in assay [1] (filed as antagonist) was 13%; in [2] (filed as antagonist) it was 3%; in [3], 94%; in assay [4] (filed as antagonist), 32%; in assay [5], 84%; in assay [6], 89%. In addition, the Activity was 92% in assay [7]; 32% in [8] (filed as antagonist); 29% in assay [9] (filed as antagonist); 67% in the assay filed under Rattus norvegicus; 107% in [10]; 54% in the assay filed under Homo sapiens. Moreover, the Activity was 3% in [11] (filed as antagonist), 90% in [12] and 93% in assay [13].
